Measurements taken from patent publication US10995070B2, “Acetyl-CoA carboxylase modulators” (Monsanto Technology LLC, priority 2013, dated 2021).

Key:
[1] = biological target: Ustilago maydis acetyl CoA carboxylase (ACCase) (Ustilago maydis, UniProt A0A0D1DYD5); assay: ACCase enzymatic assay (coupled PK/LDH, NADH OD340); format: biochemical; settings: read-out: ACCase Inhibitory Activity IC50
Description: Ustilago maydis acetyl CoA carboxylase (ACCase) was cloned, expressed, and purified as described (Weatherly et al, Biochem. J., 2004) and the test compounds were tested in a 96-well plate format. Primary in vitro screening consisted of obtaining dose response data at 100, 33, 10, and 1 μM inhibitor. Actives in the primary screen were re-tested to establish IC50 values.
Direct detection of the conversion of acetyl CoA to malonyl CoA by ACCase was not feasible, but during this process ATP is converted to ADP which allowed for detection through a standard reaction coupling with ADP recycling to the oxidation of NADH. Thus, ACCase activity was measured via kinetic OD340 measurements of the conversion of NADH to NAD in a coupled reaction involving the conversion of phosphoenolpyruvate (PEP) to lactate.
The complete 200 ul reaction mixture contained 52.5 mM HEPES (pH8), 2.625 mM MgCl2, 1 mM ATP, 0.525 mM DTT, 11 mM NaHCO3, 1% DMSO with or without inhibitor, 1× pyruvate kinase/lactate dehydrogenase (PK/LDH), 0.3 mM NADH, 0.5 mM PEP, and 5 μg ACCase. The reactions were incubated at 30° C. for 10 minutes and then initiated by the addition of 0.33 mM acetyl CoA. The initiated reactions were read immediately via plate reader at OD340 and kinetic readings were acquired every 20 s for 15 minutes while keeping the temperature at 30° C.
A slope of the kinetic curve was determined by using the 2 to 7 minute data which was then calculated as percent inhibition relative to the no inhibitor control.
The primary screens were conducted in duplicate and the IC50's conducted in triplicate. Averages were reported along with standard deviation calculation to generate error bars.
Each plate contained its own controls and consisted of a DMSO only control, 5-fold titration series of soraphen from 2 μM to 3.2 nM, and an ADP coupled reaction control. […]
A slope of the kinetic curve was determined by using the 2 to 7 minute data which was then calculated as percent inhibition relative to the no inhibitor control. Those compounds which had no significant PK/LDH inhibition at or above the IC50 in the ACCase assay, were considered to be valid modulators of only ACCase.

[2] = tested on: Diplodia maydis; assay: Fungal growth inhibition assay, D. maydis; format: cell-based; settings: 48 h
Description: (§1) Spores were isolated from previously sub-cultured plates of Botrytis cinerea, Phytophthora capsici, Fusarium moniliforme, Fusarium viguliforme, Collectotrichum graminicola, and Diplodia maydis. All spores were filtered and collected in a sterile glass bowl to isolate the spores from the mycelia. The isolation and sub-culture plate condition for each pathogen is described below.
Spore isolation for D. maydis: A 3-4 week old PDA (pre-mix) plate was removed from 26° C. incubator with a light/dark 12 hour cycle and the mycelia were treated with 6-7 ml of sterile distilled water, scraped into a sterile petri dish, and smashed to open the pycnidia. The spores were then collected in a sterile filter bowl containing a fluted piece of filter paper and poured into a conical tube.
(§2) After spore isolation, pathogen spores were counted on a hemocytometer to calculate the spores/ml. In 17% V8 liquid media containing 3 g/L CaCO3, isolated spores were diluted to individual concentrations based on the growth curves at 48 hours of each pathogen. The spore concentrations for each pathogen were as follows: B. cinerea—10,000 sp/ml; P. capsici—300 sp/ml; F. monliforme—500 sp/ml; F. virguliforme—500 sp/ml; C. graminicola—3,000 sp/ml; and D. maydis—3,000 sp/ml.
(§3) Chemistry stocks were dissolved in DMSO at 2.5 mg/ml. Chemistry was diluted in a 96-well stock plate in five-fold dilutions to obtain a final concentration of 50, 10, and 2 ppm in vitro. The final concentration of the positive control after the five-fold dilutions was as follows: soraphen—0.5, 0.1, and 0.02 ppm. Negative controls on each plate included 2% DMSO, water containing spores and media, and a blank for background subtraction.
(§4) In a 96-well plate the spore solution, chemistries, and controls were combined to make the final solution concentrations mentioned above. Upon addition of the chemistry, an OD600 reading was done to assess chemical precipitation. The 96-well plates were incubated in plastic tubs containing wet paper towels under the following conditions, 25° C. in the dark for P. capsici and B. cinerea or 26° C. with light/dark cycle for C. graminicola, D. maydis, F. virguliforme, F. monliforme. Plate readings were repeated at 24 and 48 hrs. Visual ratings were performed at 24 and 48 hrs to check for precipitation and confirm efficacy. Visual and OD600 ratings of the chemistry at 48 hours were compared to the 2% DMSO control to determine the percent of pathogen growth inhibition.

[3] = tested on: Collectotrichum graminicola; assay: Fungal growth inhibition assay, C. graminicola; format: cell-based; settings: Colletotrichum graminicola, 48 h
Description: as §1
Spore isolation for C. graminicola: A 1-2 week old oatmeal agar (pre-mix) plate was removed from 26° C. incubator with a light/dark 12 hour cycle and the mycelia were treated with 10-15 ml of filter sterilized distilled water. The mycelia were scraped to re-suspend the spores. The spores were then collected in a sterile filter bowl containing a piece of sterile cheesecloth and poured into a conical tube.
as §2, §3, §4

[4] = tested on: Fusarium virguliforme; assay: Fungal growth inhibition assay, F. virguliforme; format: cell-based; settings: 48 h
Description: as §1
Spore isolation for F. virguliforme: A 2-3 week old PDA (pre-mix) plate containing cefotaxime (100 mg/L) and kanamycin (50 mg/L) was removed from 26° C. incubator with a light/dark 12 hour cycle and the mycelia were treated with 5-10 ml of filter sterilized distilled water. The mycelia were scraped to re-suspend the spores. The spores were then collected in a sterile filter bowl containing a fluted piece of filter paper and poured into a conical tube.
as §2, §3, §4

[5] = tested on: Saccharomyces cerevisiae; assay: Yeast growth inhibition assay; format: cell-based; settings: read-out: S. cerevisiae % growth inhibition
Description: Yeast cells (Ade2 strain) were grown in liquid YPD (1% yeast extract, 2% peptone, 2% dextrose) for 16 hours at 30° C. from previously sub-cultured plates of Saccharomyces cerevisiae. The OD600 of the overnight culture was checked via spectrophotometer and diluted to a concentration of 2×10^4 cells/ml.
Chemistry stocks were dissolved in DMSO to a concentration of 10 mM. Chemistry stocks were further diluted in a 96-well stock plate to obtain final concentrations of […] in 1% DMSO. The final concentrations of the soraphen positive control were 400, 40, and 3.2 nM. The negative controls on each plate included a background subtraction control containing yeast and 1% DMSO (without chemistry) and a second contamination control containing YPD (with no yeast) and 1% DMSO (without chemistry).
98 μl liquid YPD was added to 2 μl diluted stock of DMSO per well and mixed thoroughly. After mixing, 100 μl of the diluted yeast solution was added to bring the final yeast concentration to 1×10^4 cells/ml or 2000 cells per well. An initial spectrophotometric reading at OD600 was conducted on the entire plate and served as the 0 hours time point used to subtract any background. […] […] […] All experiments were conducted in triplicate. Averages were reported along with standard deviation calculation to generate error bars. Each plate contained its own controls and consisted of inoculated+DMSO, non-inoculated+DMSO, and a titration series of soraphen at 400, 40, and 3.2 nM.

Sequence of Ustilago maydis acetyl CoA carboxylase (ACCase) (A0A0D1DYD5 1-2185): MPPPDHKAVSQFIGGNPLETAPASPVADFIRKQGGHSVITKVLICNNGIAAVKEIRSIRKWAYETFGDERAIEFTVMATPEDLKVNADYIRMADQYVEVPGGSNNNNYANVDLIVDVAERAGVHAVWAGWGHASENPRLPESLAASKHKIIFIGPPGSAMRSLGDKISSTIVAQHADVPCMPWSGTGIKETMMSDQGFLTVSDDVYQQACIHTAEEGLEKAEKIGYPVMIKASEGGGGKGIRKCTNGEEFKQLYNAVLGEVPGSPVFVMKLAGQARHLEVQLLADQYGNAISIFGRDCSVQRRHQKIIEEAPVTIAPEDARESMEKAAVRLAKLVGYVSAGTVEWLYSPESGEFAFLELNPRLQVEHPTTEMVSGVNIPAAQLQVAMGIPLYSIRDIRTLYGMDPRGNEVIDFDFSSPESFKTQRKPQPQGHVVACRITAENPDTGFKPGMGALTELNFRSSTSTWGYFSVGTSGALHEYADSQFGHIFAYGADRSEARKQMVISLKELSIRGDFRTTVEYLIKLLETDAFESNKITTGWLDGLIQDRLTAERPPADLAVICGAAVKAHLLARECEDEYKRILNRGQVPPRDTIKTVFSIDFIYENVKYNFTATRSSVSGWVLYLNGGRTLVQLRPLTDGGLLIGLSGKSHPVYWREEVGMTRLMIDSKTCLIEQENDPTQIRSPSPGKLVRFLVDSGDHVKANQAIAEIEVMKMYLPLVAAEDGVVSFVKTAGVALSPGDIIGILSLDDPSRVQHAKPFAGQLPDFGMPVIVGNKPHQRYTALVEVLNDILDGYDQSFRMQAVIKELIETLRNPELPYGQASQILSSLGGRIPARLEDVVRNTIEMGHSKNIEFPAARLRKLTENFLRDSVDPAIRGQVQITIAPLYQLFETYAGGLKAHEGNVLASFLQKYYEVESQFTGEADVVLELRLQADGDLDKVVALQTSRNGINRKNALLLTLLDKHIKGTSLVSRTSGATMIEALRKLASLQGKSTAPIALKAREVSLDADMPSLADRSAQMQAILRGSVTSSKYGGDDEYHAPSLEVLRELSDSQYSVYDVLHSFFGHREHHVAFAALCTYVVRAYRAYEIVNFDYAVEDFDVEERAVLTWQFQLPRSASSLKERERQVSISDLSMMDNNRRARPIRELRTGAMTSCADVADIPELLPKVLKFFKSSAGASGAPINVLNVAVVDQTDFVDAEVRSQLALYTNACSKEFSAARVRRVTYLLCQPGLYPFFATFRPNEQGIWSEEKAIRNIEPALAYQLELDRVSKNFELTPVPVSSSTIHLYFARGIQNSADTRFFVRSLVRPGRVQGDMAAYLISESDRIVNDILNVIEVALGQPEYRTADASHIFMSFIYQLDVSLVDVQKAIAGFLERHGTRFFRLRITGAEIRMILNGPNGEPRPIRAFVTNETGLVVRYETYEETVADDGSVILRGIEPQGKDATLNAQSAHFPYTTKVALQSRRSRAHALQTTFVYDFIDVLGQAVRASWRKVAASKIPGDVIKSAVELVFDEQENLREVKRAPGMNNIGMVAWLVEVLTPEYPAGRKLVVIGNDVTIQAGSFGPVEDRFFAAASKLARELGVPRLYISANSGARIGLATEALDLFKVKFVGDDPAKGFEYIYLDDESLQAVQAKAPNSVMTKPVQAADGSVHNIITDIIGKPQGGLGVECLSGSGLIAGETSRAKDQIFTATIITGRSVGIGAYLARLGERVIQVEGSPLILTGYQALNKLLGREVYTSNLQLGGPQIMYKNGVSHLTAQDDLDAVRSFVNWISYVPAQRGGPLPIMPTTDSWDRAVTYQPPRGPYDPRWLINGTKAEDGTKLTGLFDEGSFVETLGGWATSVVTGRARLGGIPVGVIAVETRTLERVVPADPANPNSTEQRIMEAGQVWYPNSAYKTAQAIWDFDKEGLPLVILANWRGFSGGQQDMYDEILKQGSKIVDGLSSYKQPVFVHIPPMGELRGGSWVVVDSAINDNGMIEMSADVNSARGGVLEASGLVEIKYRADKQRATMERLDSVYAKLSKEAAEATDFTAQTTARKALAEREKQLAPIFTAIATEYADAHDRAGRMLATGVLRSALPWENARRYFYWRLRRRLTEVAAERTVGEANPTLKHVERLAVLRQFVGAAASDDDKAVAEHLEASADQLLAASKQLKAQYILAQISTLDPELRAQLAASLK

SMILES | IC50 [1] | inhibition at 2 ppm [2] | inhibition at 10 ppm [2] | inhibition at 2 ppm [3] | inhibition at 10 ppm [3] | also measured
COc1ccc2c(-c3ccccc3)cc(SC(C)C(N)=O)nc2c1 (centres unmarked) [Formula III-i, 2-((7-methoxy-4-phenylquinolin-2-yl)thio)propanamide] | 8.8 µM |  |  |  |  | 
COC(=O)COc1ccc(-c2cc(-c3ccccc3)c3ccccc3n2)cc1 [Formula IIc-i, methyl 2-(4-(4-phenylquinolin-2-yl)phenoxy)acetate] |  | 12% | 44% |  |  | 
COC(=O)Cc1ccc(-c2cc(-c3ccccc3)c3ccccc3n2)s1 [Formula IId-i, methyl 2-(5-(4-phenylquinolin-2-yl)thiophen-2-yl)acetate] | 12 µM | 16% | 26% | 6% | 32% | inhibition at 50 ppm [3]: 79%
COC(=O)Cc1ccc(-c2nc3ccccc3c(-c3ccccc3)c2Cl)s1 [Formula IId-ii, methyl 2-(5-(3-chloro-4-phenylquinolin-2-yl)thiophen-2-yl)acetate] |  | 26% | 30% |  |  | inhibition at 2 ppm [4]: 44%; inhibition at 10 ppm [4]: 34%
COc1ccc(-c2cc(-c3ccccc3)c3ccccc3n2)cc1 [Formula IV-i, 2-(4-methoxyphenyl)-4-phenylquinoline] | 21.2 µM | 21% | 44% | 35% | 22% | 
COc1ccc(-c2cc(-c3ccccc3)c3ccccc3n2)cc1OC [Formula IV-ii, 2-(3,4-dimethoxyphenyl)-4-phenylquinoline] | 7.82 µM | 26% | 34% | 34% | 41% | 
NC(=O)COc1ccc(-c2cc(-c3ccccc3)c3ccccc3n2)cc1 [Formula Ia-i, 2-(4-(4-phenylquinolin-2-yl)phenoxy)acetamide] | 0.515 µM |  |  |  |  | 
O=C(O)COc1ccc(-c2cc(-c3ccccc3)c3ccccc3n2)cc1 [Formula Ia-ii, 2-(4-(4-phenylquinolin-2-yl)phenoxy)acetic acid] | 0.165 µM |  |  |  |  | 
COc1cccc2c(-c3ccccc3)cc(-c3ccc(OCC(N)=O)cc3)nc12 [Formula Ia-iii, 2-(4-(8-methoxy-4-phenylquinolin-2-yl)phenoxy)acetamide] | 0.549 µM |  |  |  |  | 
CCc1cccc2c(-c3ccccc3)cc(-c3ccc(OCC(N)=O)cc3)nc12 [Formula Ia-iv, 2-(4-(8-ethyl-4-phenylquinolin-2-yl)phenoxy)acetamide] | 8.15 µM |  |  |  |  | 
O=C(COc1ccc(-c2cc(-c3ccccc3)c3cc(Cl)ccc3n2)cc1)NCCO [Formula Ia-v, 2-(4-(6-chloro-4-phenylquinolin-2-yl)phenoxy)-N-(2-hydroxyethyl)acetamide] | 13 µM |  |  |  |  | 
NC(=O)Cc1ccc(-c2nc3ccccc3c(-c3ccccc3)c2Cl)s1 [Formula Ib-i, 2-(5-(3-chloro-4-phenylquinolin-2-yl)thiophen-2-yl)acetamide] | 1.32 µM |  |  | 44% | 51% | inhibition at 2 ppm [4]: 43%; inhibition at 10 ppm [4]: 31%
NC(=O)Cc1ccc(-c2cc(-c3ccccc3)c3ccccc3n2)s1 [Formula Ib-iii, 2-(5-(4-phenylquinolin-2-yl)thiophen-2-yl)acetamide] | 8.18 µM |  |  | 31% | 98% | inhibition at 3.7 µM ([5]; 3.7 μM): 0%; inhibition at 11.1 µM ([5]; 11.1 μM): 14%; inhibition at 33.3 µM ([5]; 33.3 μM): 57%; inhibition at 100 µM ([5]; 100 μM): 99%; inhibition at 50 ppm [3]: 81%
COc1cccc2c(-c3ccccc3)cc(-c3ccc(CC(N)=O)s3)nc12 [Formula Ib-v, 2-(5-(8-methoxy-4-phenylquinolin-2-yl)thiophen-2-yl)acetamide] | 4.21 µM |  |  |  |  | 
CCc1cccc2c(-c3ccccc3)cc(-c3ccc(CC(N)=O)s3)nc12 [Formula Ib-vi, 2-(5-(8-ethyl-4-phenylquinolin-2-yl)thiophen-2-yl)acetamide] | 9.58 µM |  |  |  |  | 
CO[C@H]1CCCC[C@@H](c2ccccc2)OC(=O)[C@@H](C)[C@@]2(O)O[C@H]([C@@H](C)[C@H](O)[C@H]2OC)[C@@H](C)/C=C/[C@H]1OC [Soraphen, reference compound] | 0.0458 µM |  |  |  |  | 
